Measured values as given in patent US9416182B2, “Anti-TNF-anti-IL-17 bispecific antibodies” (Eli Lilly and Company, priority 2013, dated 2016).
pIC50: −log10 of the molar value.

Columns and labels:
[1] = test system: human TNFα and human IL-17; assay: Inhibition of CXCL1 production from HT-29 cells induced by combination of IL-17 and TNF; format: cell-based; details: antibodies at fixed dose of 4 nM, 3 pM TNFα and 200 pM IL-17
Procedure: As described above, HT-29 cells are human colorectal adenocarcinoma epithelial cells that naturally express the IL-17 and TNF receptors. Incubation of HT-29 cells with human TNFα and human IL-17 results in the production of CXCL1, which can be measured using a commercially available ELISA.
Testing is carried out in five replicate wells per treatment. Assay medium is used for “medium alone” and “IL-17+TNF alone”. Anti-IL-17 antibody (U.S. Pat. No. 7,838,638); anti-TNFα antibody (adalimumab); and combination of anti-IL-17 antibody/anti-TNF antibody are used as controls in the assay. Control antibodies are tested at the same molar range as the bispecific antibody. […]
HT-29 cells are routinely cultured in assay medium [McCoy's 5A containing 10% FBS, penicillinG (0.2 U/mL) and streptomycin (0.2 mcg/mL)]. […] Cell density is measured with Invitrogen Countess, and 20,000 HT-29 cells (in 100 μL) are added to each of the 96-well plates. […]
At the end of the assay, the plates are centrifuged (500×g for 5 minutes at room temperature), and the cell culture medium is transferred to polypropylene 96-well plates, which are sealed and frozen at −80° C. […] CXCL1 levels in medium are measured with a CXCL1 sandwich ELISA (R&D Systems DuoSet #DY275), as per the manufacturer's instructions. At the end of the ELISA reactions, plates are read at 450 nm on a microplate reader (Molecular Devices VersaMax Tunable).

[2] = test system: human skin grafts on immunodeficient mice; assay: Humanized psoriasis mouse model (human skin grafts, PBMC injection); format: in vivo; details: twice daily topical; after three weeks
Text: A humanized mouse model of psoriasis is a model that involves grafting of human non-lesional skin biopsies from psoriasis patients onto the back skin of immunodeficient mice. After the human skin has grafted (3 to 4 weeks later), T-cell activated human peripheral blood mononuclear cells (PBMCs) from the same donor are intradermally injected into the graft to induce psoriasis-like epidermal thickening (Wrone-Smith and Nickoloff J., Clin Invest. 15; 98(8):1878-87 (1996)).
After three weeks the mice are euthanized, the grafted skin was isolated, and the thickness of the epidermis is measured.

[3] = test system: membrane bound human TNFα; assay: Inhibition of membrane bound human TNFα induced cytotoxicity in L929 cells; format: cell-based; details: average of 3 independent experiments+/−SEM; read-out: IC50, killing of L929 cells by human non-cleavable membrane bound TNFα CHO cells
Procedure: The non-cleavable TNFα construct is stably transfected to Chinese hamster ovary (CHO) cells. These cells express membrane bound TNFα as shown by flow cytometry. Incubation of L929 cells with CHO cells expressing human non-cleavable membrane bound TNFα results in rapid L929 cell death.
CHO cells expressing membrane bound human TNFα are routinely maintained in selection medium (AM2001 media, an internal CHO growth media without MSX, 8 mM glutamine, GS supplement, HT supplement with 500 μg/mL G418). On the day of the assay, the cells are counted, rinsed with 1×PBS (no Ca^++ or Mg^++), centrifuged at 215×g for 5 mM and re-suspended at 50,000 cells/mL in L929 assay medium together with Actinomycin-D (6.25 μg/mL). 500 cells (in 10 μL) of cell suspension are added to each concentration of antibody mixtures that were incubated for 60 minutes at 37° C., 95% relative humidity, 5% CO2. […] The cell death is measured using an MTT cytotoxicity assay as described above for soluble TNFα L929 assay.

[4] = target: human TNFα (Homo sapiens, UniProt P01375); assay: Inhibition of human TNFα-induced production of CXCL1 in vivo; parameters: species or system mouse; details: C57BI/6J mice; 16.7 nmol/kg subcutaneously; TNFα challenge two days later; plasma two hours after challenge
Procedure: Two days later, mice receive a single intraperitoneal injection of human IL-17 (3 μg/mouse) or human TNFα (1 μg/mouse). Two hours after cytokine challenge, the mice are sacrificed and plasma is analyzed for CXCL1 using a commercial ELISA.

Chain of membrane bound human TNFα (P01375 89-233 limits assumed): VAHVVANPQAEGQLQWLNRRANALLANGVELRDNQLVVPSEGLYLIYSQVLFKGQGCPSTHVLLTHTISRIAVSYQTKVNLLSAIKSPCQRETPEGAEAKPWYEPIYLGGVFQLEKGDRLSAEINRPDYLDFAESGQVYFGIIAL
Chain of human TNFα (P01375 77-233 limits assumed): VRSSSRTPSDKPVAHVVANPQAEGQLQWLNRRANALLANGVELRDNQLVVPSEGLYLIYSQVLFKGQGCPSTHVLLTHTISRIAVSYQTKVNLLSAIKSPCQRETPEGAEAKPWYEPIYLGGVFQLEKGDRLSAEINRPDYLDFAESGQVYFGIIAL

adalimumab [anti-TNFα]
percent human CXCL1 left after incubation (TNF+IL-17 alone being 100%) [1]: 8.97+/−2.65%

C[C@H]1C[C@H]2[C@@H]3CCC4=CC(=O)C=C[C@]4(C)[C@@]3(F)[C@@H](O)C[C@]2(C)[C@@]1(O)C(=O)CO [Betamethasone, betamethasone]
Mean Epidermal Thickness [2]: 74.9 μm

adalimumab with IgG4 isotype: TNFα neutralizing antibody (adalimumab with IgG4 isotype), positive control in L929 assays and in vivo CXCL1 (Table 2)
pIC50 [3]: 9.17
Average % inhibition of human TNFα-induced CXCL1 production in vivo [4]: 89.4 ± 2%
